Key:
Experiment in all cases: Growth/viability assay, IC50 at 72 h
Assay type in all cases: cell-based
LnCaP-C81 = details: Homo sapiens; C-81, Fig. 2g
From the text: (§1) Four commercial (LnCaP, 22rv1, DU145 and PC3) and twelve non-commercial (LAPC-4 [44], CWR22, PCb2 [45], PC3Lymphnode, PC3M, PC3M-pro4 [46] and PC3M-Ln4 [47], LnCaP-104S [47], LnCaP104R1 [47], LnCaP-C81 [47], C4-2B [48], VCAP [49] and DuCaP [[49]) cell lines were selected for the in vitro experimental studies for their biological characteristics: LAPC-4 (Androgen receptor [AR] positive, androgen dependent with low Akt/mTOR activities, p53 wt); LnCaP (AR positive, androgen dependent with high Akt/mTOR activities, p53 wt); LnCaP-C81 and LnCaP-C4-2B (AR positive, androgen independent with high Akt/mTOR activities, p53 wt); 22rv1 (AR positive, androgen independent with low Akt/mTOR activities, p53 wt); PC3 (AR negative, with high Akt/mTOR activities and no p53 function (p53 del) and DU145 (AR negative, with low Akt/mTOR activities and mutant p53). PC3 and DU145 have been also transfected with AR to obtain PC3AR [50] and DU-AR [51]. Benign prostatic hyperplasia line (BPH1), and Prostatic epithelial lines (EPN and RWPE-1) were used as non-neoplastic controls. Cells were routinely cultured in appropriate medium supplemented with 10 % fetal bovine serum (FBS), 1 % pen-strep and 1 % L-glutamine (Invitrogen Corporation, Carlsbad, CA). To minimize the risk to work with misidentified and/or contaminated cell lines, DNA profiling was periodically carried out in-house to authenticate cell cultures. DNA was isolated from cell lines using a standard DNA isolation kit. STR profiling was performed by using GenePrint® 10 System (Promega Corporation, Madison, WI). An eight-capillary 3500 Genetic Analyzer (Applied Biosystems Life Technologies Europe BV, Monza, Italy) was used to separate and identify alleles using standard procedures. GenePrint® 10 System allows co-amplification and detection of […] human loci required by the guidelines ASN-0002. For non-commercial cell lines, the authentication process was carried out by comparing STR-fingerprints with those published by Adri van Bokhoven and co-workers. In addition, cell lines were stocked at very low passages and used at <15-20 subcultures.
(§2) Cells were seeded at a density of 2 x 10^4 cells/mL in 24-well plates. Cells were left to attach and grow in 5 % FCS DMEM for 24 h. After this time, cells were maintained in the appropriate culture conditions. Morphological controls were performed every day with an inverted phase-contrast photomicroscope (Nikon Diaphot, Tokyo, Japan) before cell trypsinization and counting. Cells were trypsinized and resuspended in 1.0 ml of saline, then counted using a NucleoCounter™ NC-100 (automated cell counter systems, Chemotec, Gydevang, Denmark). The effect on cell proliferation was measured by taking the mean cell number with respect to controls over time for the different treatment groups.
(§3) Viable cells were counted by using the NucleoCounter™ NC-100 (automated cell counter systems, Chemotec, Cydevang, DK). Apoptosis was evaluated by using Tali® Apoptosis Kit - Annexin V Alexa Fluor® 488 & Propidium Iodide-based, (Life Technologies Italia, Monza, Italy). Stained cells were then measured on a Tali® Image-Based Cytometer. Apoptosis was further confirmed by FACS analysis following the instructions of the manufacturer.
(§4) Six SINE analogs KPT-127, KPT-185, KPT-205, KPT-227, KPT251 and KPT-330 sharing a trifluoromethyl phenyl triazole scaffold, were investigated for their growth inhibitory and apoptotic potential in our PCa cell panel. Therefore, the effects of these XPO1 inhibitors were evaluated on the growth of PCa cell lines performing dose- and time-dependent studies. To examine the dose-dependent effects of these compounds, we treated cells with varying doses of the compounds (0, 1, 10, 50, 100, 500 and 1000 nM) and assessed viability at 72 hours after treatment. The IC50 for each compound was then calculated. […]

BPH-1 = details: Homo sapiens
From the text: as §1, §2, §3, §4

LAPC-4 = details: Homo sapiens
From the text: as §1, §2, §3, §4

PCb2 = details: Homo sapiens; PCb2, Fig. 2g
From the text: as §1, §2, §3, §4

CWR22 = details: Homo sapiens; CWR22, Fig. 2g
From the text: as §1, §2, §3, §4

PC3AR = details: Homo sapiens, PC3/AR, Fig. 2g
From the text: as §1, §2, §3, §4

VCaP = details: Homo sapiens, Fig. 2g
From the text: as §1, §2, §3, §4

C4-2B = details: Homo sapiens, Fig. 2g
From the text: as §1, §2, §3, §4

DuCaP = details: Homo sapiens, Fig. 2g
From the text: as §1, §2, §3, §4

RWPE-1 = details: Homo sapiens; RWPE-1, Fig. 2g
From the text: as §1, §2, §3, §4

DU145 = details: Homo sapiens, DU-145; DU145, Fig. 2g
From the text: as §1, §2, §3, §4

DU-AR = details: Homo sapiens, Fig. 2g
From the text: as §1, §2, §3, §4

LnCaP104R1 = details: Homo sapiens; 104R1, Fig. 2g
From the text: as §1, §2, §3, §4

22rv1 = details: Homo sapiens
From the text: as §1, §2, §3, §4

LnCaP-104S = details: Homo sapiens, Fig. 2g
From the text: as §1, §2, §3, §4

LnCaP = details: Homo sapiens
From the text: as §1, §2, §3, §4

PC3M-Ln4 = details: Homo sapiens; PC3M-Ln4, Fig. 2g
From the text: as §1, §2, §3, §4

EPN = details: Homo sapiens, Fig. 2g
From the text: as §1, §2, §3, §4

PC3 = details: Homo sapiens, PC-3
From the text: as §1, §2, §3, §4

PC3M-pro4 = details: Homo sapiens; PC3M-pro4, Fig. 2g
From the text: as §1, §2, §3, §4

| IC50 (LnCaP-C81) | IC50 (PC3AR) | IC50 (VCaP) | IC50 (DU145) | IC50 (LnCaP104R1) | IC50 (22rv1; 22rv1, Fig. 2g) | IC50 (LnCaP-104S) | IC50 (LnCaP; Fig. 2g) | IC50 (PC3M-Ln4) | IC50 (PC3; PC3, Fig. 2g) | Compound | IC50 (BPH-1; BPH-1, BPH1, Fig. 2g) | IC50 (BPH-1; BPH-1, 72 hours, Fig. 2a-f) | IC50 (LAPC-4; LAPC4, LAPC-4, Fig. 2g) | IC50 (PCb2) | IC50 (CWR22) | IC50 (C4-2B) | IC50 (DuCaP) | IC50 (RWPE-1) | IC50 (DU-AR) | IC50 (EPN) | other results |
| --- | --- | --- | --- | --- | --- | --- | --- | --- | --- | --- | --- | --- | --- | --- | --- | --- | --- | --- | --- | --- | --- |
| 80 nM | 122 nM | 120 nM | 105 nM | 83 nM | 102 nM | 130 nM | 171 nM | 90 nM | 103 nM | O=C(/C=C\n1cnc(-c2cc(C(F)(F)F)cc(C(F)(F)F)c2)n1)NNc1cnccn1 [KPT-330] | > 1000 nM | > 1000 nM | 365 nM | 114 nM | 160 nM | 66 nM | 160 nM | 1000 nM | 124 nM | 800 nM | IC50 (PC3M-pro4): 118 nM |
| 240 nM | 260 nM | 440 nM | 360 nM | 270 nM | 361 nM | 200 nM | 257 nM | 210 nM | 300 nM | FC(F)(F)c1cc(-c2ncn(/C=C\c3nnco3)n2)cc(C(F)(F)F)c1 [KPT-251] | > 1000 nM | > 1000 nM | 628 nM | 320 nM | 480 nM | 200 nM | 210 nM | 1000 nM | 300 nM | 1000 nM | IC50 (LAPC-4; LAPC4, 72 hours, Fig. 2a-f): 628 ± 123 nM; IC50 (22rv1; 22rv1, 72 hours, Fig. 2a-f): 361 ± 59 nM; IC50 (LnCaP; 72 hours, Fig. 2a-f): 257 ± 82 nM; IC50 (PC3; PC3, 72 hours, Fig. 2a-f): 380 ± 39 nM; IC50 (PC3M-pro4): 355 nM |

Source: PMC4666032, “KPT-330, a potent and selective exportin-1 (XPO-1) inhibitor, shows antitumor effects modulating the expression of cyclin D1 and survivin in prostate cancer models” (BMC Cancer, 2015)
